This is an account of results in US11642348B2, “Substituted benzene compounds” (Epizyme, Inc., priority 2012, dated 2023).

Structures are written as SMILES. Where two headings read alike, the source gives them in different places. Where only a bound is given, the exact number is not on record here.

The target in assay [1] is wild-type EZH2 (PRC2 complex) (Homo sapiens (Human), UniProt Q15910). Kind of assay: PRC2 enzyme assay on peptide substrates (wild-type EZH2).
For another assay, the system named is WSU-DLCL2 cells. Kind of assay: Cell proliferation analysis (WSU-DLCL2, Cell Titer Glo). The assay is classed as cell-based. The note with it: Homo sapiens, 6 days.
Assay [2] concerns H3K27me3 in WSU-DLCL2 cells. Kind of assay: WSU-DLCL2 methylation assay (H3K27me3 ELISA). The note with it: Homo sapiens, 96 hours. The format is cell-based. A general note: An ELISA detects its analyte on a solid surface through an enzyme-linked reagent.
Excerpt: WSU-DLCL2 suspension cells were purchased from DSMZ (German Collection of Microorganisms and Cell Cultures, Braunschweig, Germany). RPMI/Glutamax Medium, Penicillin-Streptomycin, Heat Inactivated Fetal Bovine Serum, and D-PBS were purchased from Life Technologies, Grand Island, N.Y., USA. Extraction Buffer and Neutralization Buffer (5×) were purchased from Active Motif, Carlsbad, Calif., USA. Rabbit anti-Histone H3 antibody was purchased from Abcam, Cambridge, Mass., USA. Rabbit anti-H3K27me3 and HRP-conjugated anti-rabbit-IgG were purchased from Cell Signaling Technology, Danvers, Mass., USA. TMB “Super Sensitive” substrate was sourced from BioFX Laboratories, Owings Mills, Md., USA. IgG-free Bovine Serum Albumin was purchased from Jackson ImmunoResearch, West Grove, Pa., USA. PBS with Tween (10×PBST) was purchased from KPL, Gaithersburg, Md., USA. Sulfuric Acid was purchased from Ricca Chemical, Arlington, Tex., USA. Immulon ELISA plates were purchased from Thermo, Rochester, N.Y., USA. V-bottom cell culture plates were purchased from Corning Inc., Corning, N.Y., USA. V-bottom polypropylene plates were purchased from Greiner Bio-One, Monroe, N.C., USA.
WSU-DLCL2 cells were seeded in assay medium at a concentration of 50,000 cells per mL to a 96-well V-bottom cell culture plate with 200 μL per well. […] Plates were incubated on a titer-plate shaker at 37° C., 5% CO2 for 96 hours. After four days of incubation, plates were spun at 241×g for five minutes and medium was aspirated gently from each well of cell plate without disturbing cell pellet. Pellet was resuspended in 200 μL DPBS and plates were spun again at 241×g for five minutes. The supernatant was aspirated and cold (4° C.) Extraction buffer (100 μL) was added per well. Plates were incubated at 4° C. on orbital shaker for two hours. […] Supernatant (80 μL per well) was transferred to its respective well in 96 well V-bottom polypropylene plate. Neutralization Buffer 5× (20 μL per well) was added to V-bottom polypropylene plate containing supernatant. V-bottom polypropylene plates containing crude histone preparation (CHP) were incubated on orbital shaker×five minutes. Crude Histone Preparations were added (2 μL per well) to each respective well into duplicate 96 well ELISA plates containing 100 μL Coating Buffer (1×PBS+BSA 0.05% w/v). Plates were sealed and incubated overnight at 4° C. The following day, plates were washed three times with 300 μL per well 1×PBST. […] For H3K27me3 detection, 100 μL of HRP conjugated anti-rabbit IgG antibody diluted to 1:4000 in ELISA diluent was added per well. Plates were incubated at room temperature for 90 minutes. […] TMB substrate 100 μL was added per well. Histone H3 plates were incubated for five minutes at room temperature. H3K27me3 plates were incubated for 10 minutes at room temperature. The reaction was stopped with sulfuric acid 1N (100 μL per well). Absorbance for each plate was read at 450 nm.
Each plate included eight control wells of DMSO only treatment (Minimum Inhibition) as well as eight control wells for maximum inhibition (Background wells).
The average of the ratio values for each control type was calculated and used to determine the percent inhibition for each test well in the plate. […] Percent inhibition was determined and IC50 curves were generated using duplicate wells per concentration of compound.
[3] abbreviates: WSUDLCL2, Table 3A, read-out: WSU Prolif. IC50.
[4] abbreviates: WSUDLCL2, Table 3A, read-out: H3K27Me3 ELISA IC50.
Where [5] appears, read: read-out: WT EZH2 IC50, Table 3B, wild-type PRC2 enzyme, peptide substrate.
Where [6] appears, read: WSUDLCL2, Table 3B, read-out: WSU proliferation IC50.
[7] abbreviates: WSUDLCL2, Table 3B, read-out: ELISA H3K27me3 IC50.

Sequence of wild-type EZH2 (PRC2 complex) (Q15910 other isoform, or with tags, fused parts or gaps): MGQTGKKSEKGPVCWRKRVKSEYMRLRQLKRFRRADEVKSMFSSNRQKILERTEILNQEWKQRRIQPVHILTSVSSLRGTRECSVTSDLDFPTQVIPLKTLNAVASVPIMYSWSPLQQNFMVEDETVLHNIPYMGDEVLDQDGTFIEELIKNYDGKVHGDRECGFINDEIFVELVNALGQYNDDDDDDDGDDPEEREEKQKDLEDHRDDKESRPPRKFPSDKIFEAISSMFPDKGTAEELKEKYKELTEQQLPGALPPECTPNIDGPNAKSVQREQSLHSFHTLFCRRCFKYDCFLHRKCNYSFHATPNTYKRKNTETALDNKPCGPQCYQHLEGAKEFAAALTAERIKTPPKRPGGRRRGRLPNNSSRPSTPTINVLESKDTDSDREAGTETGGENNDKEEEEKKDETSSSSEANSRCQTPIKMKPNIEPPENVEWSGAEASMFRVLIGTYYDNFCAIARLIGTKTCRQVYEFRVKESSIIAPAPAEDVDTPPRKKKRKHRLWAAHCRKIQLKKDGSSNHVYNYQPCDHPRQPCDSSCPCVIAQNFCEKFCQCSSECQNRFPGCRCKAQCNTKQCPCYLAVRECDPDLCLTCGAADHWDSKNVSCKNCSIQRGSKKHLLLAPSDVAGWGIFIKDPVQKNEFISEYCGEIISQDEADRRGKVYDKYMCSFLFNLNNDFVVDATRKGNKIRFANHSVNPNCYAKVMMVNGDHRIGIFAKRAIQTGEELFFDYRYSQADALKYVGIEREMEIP
Sequence of wild-type EZH2 (PRC2 complex) (O75530 whole entry partner): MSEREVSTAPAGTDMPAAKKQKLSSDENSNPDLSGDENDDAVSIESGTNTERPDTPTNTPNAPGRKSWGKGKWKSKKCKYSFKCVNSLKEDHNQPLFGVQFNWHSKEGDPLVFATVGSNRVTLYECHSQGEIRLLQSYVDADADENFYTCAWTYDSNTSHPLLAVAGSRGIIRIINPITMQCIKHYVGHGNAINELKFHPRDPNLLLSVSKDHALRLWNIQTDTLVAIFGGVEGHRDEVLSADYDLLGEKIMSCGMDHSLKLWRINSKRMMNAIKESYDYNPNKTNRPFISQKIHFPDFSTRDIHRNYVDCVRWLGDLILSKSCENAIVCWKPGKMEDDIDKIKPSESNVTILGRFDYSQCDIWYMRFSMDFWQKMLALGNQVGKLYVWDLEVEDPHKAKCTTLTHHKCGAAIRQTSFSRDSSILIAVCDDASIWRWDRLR
Sequence of wild-type EZH2 (PRC2 complex) (Q15022 whole entry partner): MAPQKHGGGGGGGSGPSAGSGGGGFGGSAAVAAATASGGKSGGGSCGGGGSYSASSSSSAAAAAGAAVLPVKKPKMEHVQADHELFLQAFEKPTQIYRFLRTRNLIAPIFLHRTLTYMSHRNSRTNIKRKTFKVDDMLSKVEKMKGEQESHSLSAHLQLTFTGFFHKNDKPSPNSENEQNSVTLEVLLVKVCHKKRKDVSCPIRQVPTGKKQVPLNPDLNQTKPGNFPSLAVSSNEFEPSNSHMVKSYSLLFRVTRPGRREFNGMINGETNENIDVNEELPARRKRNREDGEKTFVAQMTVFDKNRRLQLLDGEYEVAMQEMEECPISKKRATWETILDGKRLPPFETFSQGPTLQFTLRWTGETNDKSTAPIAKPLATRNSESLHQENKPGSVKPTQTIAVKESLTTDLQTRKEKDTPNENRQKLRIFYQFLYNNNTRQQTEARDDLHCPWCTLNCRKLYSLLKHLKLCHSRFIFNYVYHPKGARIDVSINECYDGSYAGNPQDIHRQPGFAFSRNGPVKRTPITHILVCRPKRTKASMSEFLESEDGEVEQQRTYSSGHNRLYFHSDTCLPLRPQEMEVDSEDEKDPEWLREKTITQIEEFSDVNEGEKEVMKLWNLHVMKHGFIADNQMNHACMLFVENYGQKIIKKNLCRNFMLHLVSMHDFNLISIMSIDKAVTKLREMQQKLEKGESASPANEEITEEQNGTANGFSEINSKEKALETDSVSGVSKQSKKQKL
Sequence of wild-type EZH2 (PRC2 complex) (Q09028 whole entry partner): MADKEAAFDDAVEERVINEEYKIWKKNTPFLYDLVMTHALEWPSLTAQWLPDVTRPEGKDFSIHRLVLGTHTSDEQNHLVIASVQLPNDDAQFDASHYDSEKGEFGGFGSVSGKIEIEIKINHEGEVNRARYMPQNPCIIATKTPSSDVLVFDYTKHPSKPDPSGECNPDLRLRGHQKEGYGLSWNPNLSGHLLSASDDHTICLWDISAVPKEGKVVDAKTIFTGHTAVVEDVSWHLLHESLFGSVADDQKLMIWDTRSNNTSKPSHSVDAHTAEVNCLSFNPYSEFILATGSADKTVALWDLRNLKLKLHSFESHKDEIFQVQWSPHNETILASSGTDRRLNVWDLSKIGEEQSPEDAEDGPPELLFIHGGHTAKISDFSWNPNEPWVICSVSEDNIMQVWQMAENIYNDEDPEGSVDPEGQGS

In the case of `CCN(c1cc(-c2ccc(OCCO)cc2)cc(C(=O)NCc2c(C)cc(C)[nH]c2=O)c1C)[C@H]1CC[C@H](N(C)C)CC1` [Compound 3, N-((4,6-dimethyl-2-oxo-1,2-dihydropyridin-3-yl)methyl)-5-(((trans)-4-(dimethylamino)cyclohexyl)(ethyl)amino)-4′-(2-hydroxyethoxy)-4-methyl-[1,1′-biphenyl]-3-carboxamide], the IC50 in assay [1] stood at 11.3 nM; with WSU-DLCL2 cells (setting [3]), 186 nM.
As for `CCN(c1cc(-c2ccc(OCCO)nc2)cc(C(=O)NCc2c(C)cc(C)[nH]c2=O)c1C)[C@H]1CC[C@H](N(C)C)CC1` [Compound 4, N-((4,6-dimethyl-2-oxo-1,2-dihydropyridin-3-yl)methyl)-3-(((trans)-4-(dimethylamino)cyclohexyl)(ethyl)amino)-5-(6-(2-hydroxyethoxy)pyridin-3-yl)-2-methylbenzamide], the IC50 was 8.9 nM in assay [1], 23600 nM with WSU-DLCL2 cells (setting [3]) and 21800 nM in assay [2] (setting [4]).
Take `CCN(c1cc(C#CCN2CCN(C)CC2)cc(C(=O)NCc2c(C)cc(C)[nH]c2=O)c1C)[C@H]1CC[C@H](N(C)CCOC)CC1` [Compound 7, N-((4,6-dimethyl-2-oxo-1,2-dihydropyridin-3-yl)methyl)-3-(ethyl((trans)-4-((2-methoxyethyl)(methyl)amino)cyclohexyl)amino)-2-methyl-5-(3-(4-methylpiperazin-1-yl)prop-1-yn-1-yl)benzamide]: the IC50 in assay [1] amounted to 21 nM; in the assay on WSU-DLCL2 cells (setting [3]), 651 nM; in assay [2] (setting [4]), 458 nM.
Consider `CCN(c1cc(C#CC(C)(C)O)cc(C(=O)NCc2c(C)cc(C)[nH]c2=O)c1C)[C@H]1CC[C@H](N(C)CCOC)CC1` [Compound 8, N-((4,6-dimethyl-2-oxo-1,2-dihydropyridin-3-yl)methyl)-3-(ethyl((trans)-4-((2-methoxyethyl)(methyl)amino)cyclohexyl)amino)-5-(3-hydroxy-3-methylbut-1-yn-1-yl)-2-methylbenzamide], for which the IC50 came out at 8.82 nM in assay [1], 110 nM in the assay on WSU-DLCL2 cells (setting [3]) and 292 nM in assay [2] (setting [4]).
As for `CCN(c1cc(F)cc(C(=O)NCc2c(C)cc(C)[nH]c2=O)c1C)[C@H]1CC[C@H](N(C)CCOC)CC1` [Compound 9, N-((4,6-dimethyl-2-oxo-1,2-dihydropyridin-3-yl)methyl)-3-(ethyl((trans)-4-((2-methoxyethyl)(methyl)amino)cyclohexyl)amino)-5-fluoro-2-methylbenzamide], the figures for the IC50 (in assay [1]; with WSU-DLCL2 cells (setting [3]); in assay [2] (setting [4])) were 5.3 nM, 1310 nM and 515 nM, respectively.
Taken in the same sequence, the figures for `CCN(c1cccc(C(=O)NCc2c(C)cc(C)[nH]c2=O)c1C)[C@H]1CC[C@H](N(C)CCOC)CC1` [Compound 10, N-((4,6-dimethyl-2-oxo-1,2-dihydropyridin-3-yl)methyl)-3-(ethyl((trans)-4-((2-methoxyethyl)(methyl)amino)cyclohexyl)amino)-2-methylbenzamide] were 7.36 nM, 307 nM and 469 nM.
As for `CCN(c1cc(-c2ccc(C)nc2)cc(C(=O)NCc2c(C)cc(C)[nH]c2=O)c1C)[C@H]1CC[C@H](N(C)CCOC)CC1` [Compound 15], the results for the IC50 (in assay [1]; in the assay on WSU-DLCL2 cells (setting [3]); in assay [2] (setting [4])) were 4.86 nM, 346 nM and 340 nM, respectively.
The matching figures for `CCN(c1cc(-c2ccc(OC)nc2)cc(C(=O)NCc2c(C)cc(C)[nH]c2=O)c1C)[C@H]1CC[C@H](N(C)CCOC)CC1` [Compound 16]: 5.96 nM, 675 nM and 287 nM.
In the case of `CCN(c1cc(-c2cnc(OC)cn2)cc(C(=O)NCc2c(C)cc(C)[nH]c2=O)c1C)[C@H]1CC[C@H](N(C)CCOC)CC1` [Compound 17], the IC50 in assay [1] stood at 12.9 nM; in the assay on WSU-DLCL2 cells (setting [3]), 507 nM; in assay [2] (setting [4]), 402 nM.
Taken in the same sequence, the figures for `CCN(c1cc(-c2cncnc2)cc(C(=O)NCc2c(C)cc(C)[nH]c2=O)c1C)[C@H]1CC[C@H](N(C)CCOC)CC1` [Compound 21] were 10.1 nM, 1390 nM and 840 nM.
Taken in the same sequence, the figures for `CCN(c1cc(C2CCOCC2)cc(C(=O)NCc2c(C)cc(C)[nH]c2=O)c1C)[C@H]1CC[C@H](N(C)CCOC)CC1` [Compound 25] were 8.9 nM, 2220 nM and 650 nM.
As for `CCN(c1cc(C#CCN2C[C@@H](C)N[C@@H](C)C2)cc(C(=O)NCc2c(C(C)C)cc(C)[nH]c2=O)c1C)C1CCOCC1` [Compound 101], the results for the IC50 (in assay [1] (setting [5]); with WSU-DLCL2 cells (setting [6]); in assay [2] (setting [7])) were less than 10 nM, 536 nM and 126 nM, respectively.
Regarding `CCN(c1cc(C#CC2CCN(C[C@@H](C)O)CC2)cc(C(=O)NCc2c(C(C)C)cc(C)[nH]c2=O)c1C)C1CCOCC1` [Compound 102], the IC50 in assay [1] (setting [5]) came to 10 nM; in the assay with WSU-DLCL2 cells (setting [6]), 614 nM; in assay [2] (setting [7]) it was 256 nM.
Taken in the same sequence, the figures for `CCN(c1cc(C#CC2CCN(C[C@H](C)O)CC2)cc(C(=O)NCc2c(C(C)C)cc(C)[nH]c2=O)c1C)C1CCOCC1` [Compound 103] were less than 10 nM, 745 nM and 232 nM.
Turning to `CCN1CCC(C#Cc2cc(C(=O)NCc3c(C)cc(C)[nH]c3=O)c(C)c(N(CC)C3CCOCC3)c2)CC1` [Compound 104], the values for the IC50 (in assay [1] (setting [5]); with WSU-DLCL2 cells (setting [6]); in assay [2] (setting [7])) were less than 10 nM, 549 nM and 66 nM, respectively.
Take `CCN(c1cc(C#CCN2CCCCC2)cc(C(=O)NCc2c(C)cc(C)[nH]c2=O)c1C)C1CCOCC1` [Compound 106]: the IC50 in assay [1] (setting [5]) is less than 10 nM; with WSU-DLCL2 cells (setting [6]) it was 188 nM; in assay [2] (setting [7]), 44 nM.
Taken in the same sequence, the figures for `CCN(c1cc(C#CCN2CCCC2)cc(C(=O)NCc2c(C)cc(C)[nH]c2=O)c1C)C1CCOCC1` [Compound 107] were 11 nM, 26.2 nM and 28 nM.
Taken in the same sequence, the figures for `CCN(c1cc(C#CCN2CCC[C@H](O)C2)cc(C(=O)NCc2c(C)cc(C)[nH]c2=O)c1C)[C@H]1CC[C@H](N(C)C)CC1` [Compound 108] were less than 10 nM, 438 nM and 42 nM.
Taken in the same sequence, the figures for `CCN(c1cc(C#CCN2CC(O)C2)cc(C(=O)NCc2c(C)cc(C)[nH]c2=O)c1C)[C@H]1CC[C@H](N(C)C)CC1` [Compound 109] were less than 10 nM, 1060 nM and 244 nM.
As to `CCN(c1cc(C#CCN2CC(O)C2)cc(C(=O)NCc2c(C(C)C)cc(C)[nH]c2=O)c1C)[C@H]1CC[C@H](N(C)C)CC1` [Compound 110], the IC50 in assay [1] (setting [5]) is less than 10 nM; in the assay with WSU-DLCL2 cells (setting [6]), 2450 nM; in assay [2] (setting [7]), 2010 nM.
Regarding `CCN(c1cc(C#CC2CCN(C3COC3)CC2)cc(C(=O)NCc2c(C)cc(C)[nH]c2=O)c1C)C1CCOCC1` [Compound 159], the IC50 in assay [1] is less than 5 nM; in assay [2] (setting [4]), 262 nM.
Taken in the same sequence, the figures for `CCN(c1cc(C#CC2CCN(C(C)=O)CC2)cc(C(=O)NCc2c(C)cc(C)[nH]c2=O)c1C)[C@H]1CC[C@H](N(C)C)CC1` [Compound 160] were 14 nM and 94 nM.
The matching figures for `CCN(c1cc(C#CC2CCN(CC(F)(F)F)CC2)cc(C(=O)NCc2c(C)cc(C)[nH]c2=O)c1C)[C@H]1CC[C@H](N(C)C)CC1` [Compound 161]: less than 5 nM and 34 nM.
The matching figures for `CCN(c1cc(C#CC2CCN(C)CC2)cc(C(=O)NCc2c(OC)cc(C)[nH]c2=O)c1C)C1CCOCC1` [Compound 163]: less than 5 nM and 43 nM.
